Reference: patent US12454675B2, “Method of increasing protein yield in mammalian cells in serum-free culture medium” (AGENCY FOR SCIENCE, TECHNOLOGY AND RESEARCH, priority 2016, dated 2025)

Test system: CHO-K1 cells
Assay: Shake flask batch growth and biochemical profiles of CHO-K1 in maltose or glucose medium
Assay type: cell-based, Chinese Hamster
Protocol: Viable cell density and culture viability were determined by Trypan blue dye exclusion method using Vi-Cell XR Cell Viability Analyzer (Beckman Coulter, Brea, CA) according to manufacturer's instructions. For biochemical and other cell culture parameter analyses, 1 ml of culture sample was centrifuged at 8000 g for 10 minutes to obtain clarified supernatant. Concentrations of ammonium, glutamine, glucose and lactate were analyzed by the BioProfile 100 Plus (Nova Biomedical, Waltham, MA). Osmolality was measured using a vapor pressure osmometer (Vapro 5520, Wescor, Logan, UT), according to manufacturer's instructions. Maltose concentration was quantified using Maltose Colorimetric/Fluorometric Assay Kit (Biovision, Milpitas, CA), according to manufacturer's instructions. […] Cells were cultivated in single-use Erlenmeyer flasks (Corning), with a cell seeding density of 0.3×10^6 cells/ml in duplicates. Cell culture samples were collected and analyzed daily throughout the duration of the growth profile experiment until culture viabilities fell below 50%. When necessary, culture supernatant samples were stored at -20° C. for further analysis. […]0)=μt Equation 1

[1] = CHO-K1 maltose culture, 3.6 g/l

OC[C@H]1O[C@H](O[C@H]2[C@H](O)[C@@H](O)[C@H](O)O[C@@H]2CO)[C@H](O)[C@@H](O)[C@@H]1O [maltose]
culture viabilities maintained over a longer period of time compared to glucose (CHO-K1, 3.6 g/l sugar): greater than 80% | day on which glutamine was completely utilized (CHO-K1, 3.6 g/l sugar): 5 days | final ammonium concentration (CHO-K1, 3.6 g/l sugar): 0.20 g/L | doubling time (CHO-K1, 3.6 g/l sugar, viable cell density data till Day 4): 53.7 h | maximum viable cell density (CHO-K1, HyQ PF-CHO, 3.6 g/l sugar, initial 0.3×10^6 cells/ml, maltose Day 7, glucose Day 6): 1.4×10^6 cells/ml | glucose in the culture medium [1]: not detectable | lactate production [1]: lack of lactate production
